Two molecules from patent US20220281859A1, “HETEROCYCLIC COMPOUNDS AS KINASE INHIBITORS” (Nuvation Bio Inc., priority 2019, published 2022) can be followed below.

The structures appear in SMILES notation. A value given as a limit tells only on which side of the number the result lay.

Assay [1] concerns the target T1, CDK6 (Homo sapiens, UniProt Q00534).
T1 construct: purchased Invitrogen PR8422B
Put plainly: In vitro kinase inhibition IC50, luminescence (ADP Glo) with retinoblastoma as substrate. As to conditions: ATP 25 μM, 2H at room temperature. The format is biochemical. The protocol: (§1) IC50 values of compounds against CDK4 and CDK6 were determined by luminescence using retinoblastoma as substrate. Kinase assays were performed in kinase buffer (#PV6135, Invitrogen, Life Technologies Grand Island, N.Y.) where total reaction volume was 30 μL/well in 96-well half area white plates (#3693, Costar). One microliter of 25×test compounds at specific concentrations (e.g., final concentration range: 0.1 nM-200 nM) was mixed with 10 μL of 2.5×kinase (5 nM, CDK4 #PR8064A and CDK6 #PR8422B, Invitrogen) solution and 14 μL of 4× mixed solution with retinoblastoma (1 μM, #12-439, EMD Millipore, Hayward, Calif.) and ATP (25 μM, #V7038, Promega, Madison, Wis.). The plates were covered and incubated for 2H at room temperature. At the end of incubation, 25 μL of stop solution—ADP Glo reagent (#V7002, Promega) was added. After incubation for 45 min at room temperature, 50 μL of detection reagent (##V7002, Promega) was added. Readings were taken at 15 min and 45 min incubation after detection reagent was added in a Synergy Neo Plate reader (BioTek, Winooski, Vt.) at single excitation of 340 nm and Dual emission at 495 nm and 520 nm respectively. The following equations were used in the CDK4 and CDK6 assay data analysis. Percent inhibition (100-% activity) was fitted to the “four-parameter logistic model” in XLfit for determination of IC50 values.
(§2) Percent conversion of enzyme=100−{(RLUNo Drug−No enzyme*100)/RLUNo drug+Enzyme} Equation 1
(§3) Percent conversion at each data point=100−{(RLUAverage(Drug+enzyme)*100)/RLUNo drug+Enzyme} Equation 2
(§4) Percent Inhibition=100*(% Conversioneach data point/% ConversionEnzyme) Equation 3
Background: ADP-Glo turns the ADP formed in a reaction into a luminescent signal.

Assay [2] addresses T2, CDK4 (Homo sapiens, UniProt P11802).
T2 construct: purchased Invitrogen PR8064A
Described as above. The format is biochemical. Conditions: ATP 25 μM, 2H at room temperature. The protocol:
as §1, §2, §3, §4

Assay [3] deals with DU4475. Nature of the assay: Cancer cell proliferation assay as a single agent (cell viability). The assay is classed as cell-based. Conditions: Homo sapiens, DU-4475; DU4475 breast carcinoma, Rb Negative, 144H treatment. As for the experimental part: (§5) The effects of test compounds were studied in two breast cancer cell lines of different subtype. The cancer cells (Table 3) were harvested during the logarithmic growth period and counted. Cell concentrations were adjusted to the appropriate number with respective medium and 90 μL cell suspensions were added to 96-well plates. After cells were seeded, the plates were shaken gently to distribute cells evenly and incubated at 37° C., 5% CO2 on day 1.
(§6) Cells were treated with test compounds at 7 to 9 concentrations within a desired concentration range (e.g. 1.1 nM-10 μM) on day 2 by series diluting the test compound stock solution (10 mM in DMSO) with culture medium. Treatment duration was 144H (with a medium change at 72H) for both MCF-7 and DU4475 cells. Cell viability was assessed by Cell Titer-Glo® as recommended by Promega (Cat. No.: G7572), or by resazurin assay (Sigma Aldrich, Cat. No.: R7017) post treatment.
(§7) Cell viability data were plotted using GraphPad Prism (GraphPad Software, Inc., San Diego, Calif.). In addition, a nonlinear regression model with a sigmoidal dose response and variable slope within GraphPad Prism was used to calculate the IC50 value of individual test compounds.

For assay [4], the system named is MCF-7. The assay is described as above. The assay is classed as cell-based. Conditions: Homo sapiens, MCF7; MCF-7 breast adenocarcinoma, Rb Positive, 144H treatment. As for the experimental part:
as §5, §6, §7

Assay [5] deals with T3, CDK1 (cyclin B) (Homo sapiens, UniProt P06493).
T3 construct: purchased Invitrogen Life Technologies (assay run at the vendor)
Put plainly: Z'-LYTE kinase inhibition IC50. The format is biochemical. As to conditions: ATP 34 μM, 60 minutes at room temperature. The protocol:
IC50 values of compounds against CDK1 (cyclin B) were determined by Z′-LYTE™. These screening assays were performed at Invitrogen Life Technologies (Grand Island, N.Y.) on a low volume NBS, black 384-well plate (#4514, Corning). 0.1 μL of 100× test compound in 100% DMSO (at specific solutions) was mixed with 2.4 μL of Kinase Buffer (50 mM HEPES pH 7.5, 0.01% BRIJ-35, 10 mM MgCl2, 1 mM EGTA), 5 μL of 2× Kinase (3.5-46.4 ng CDK1/cyclin B)/Peptide (2 μM Ser/Thr 18), and 2.5 μL of 4×ATP solution (34 μM). The plates were shaken for 30 seconds, and incubated for 60 minutes at room temperature. Development Reagent Solution (5 μL of 1:1024 dilution) was added to the plates followed with another 30-second plate shake, and the plates were further incubated at room temperature for one hour. The plates were read on fluorescence plate reader with Dual emission at 445 nm and 520 nm.
(§8) The following equations were used for Z′-LYTE™ Screening Assay Data Analysis. Percent inhibition (100-% activity) was fitted to the “four-parameter logistic model” in XLfit for determination of IC50 values.

Assay [6] concerns the target T4, CDK2 (cyclin A) (Homo sapiens, UniProt P24941).
T4 construct: purchased Invitrogen Life Technologies (assay run at the vendor)
Put plainly: Z'-LYTE kinase inhibition IC50. As to conditions: ATP 31 μM, 60 minutes at room temperature. The format is biochemical. As for the experimental part: IC50 values of compounds against CDK2 (cyclin A) were determined by Z′-LYTE™. These screening assays were performed at Invitrogen Life Technologies (Grand Island, N.Y.) on a low volume NBS, black 384-well plate (#4514, Corning). 0.1 μL of 100× test compound in 100% DMSO (at specific solutions) was mixed with 2.4 μL of Kinase Buffer (50 mM HEPES pH 7.5, 0.01% BRIJ-35, 10 mM MgCl2, 1 mM EGTA), 5 μL of 2× Kinase (1.22-10.3 ng CDK2/cyclin A)/Peptide (2 μM Ser/Thr 12), and 2.5 μL of 4×ATP solution (31 μM). The plates were shaken for 30 seconds, and incubated for 60 minutes at room temperature. Development Reagent Solution (5 μL of 1:1024 dilution) was added to the plates followed with another 30-second plate shake and the plates were further incubated at room temperature for one hour. The plates were read on fluorescence plate reader with Dual emission at 445 nm and 520 nm.
as §8

T2 sequence (P11802 whole entry): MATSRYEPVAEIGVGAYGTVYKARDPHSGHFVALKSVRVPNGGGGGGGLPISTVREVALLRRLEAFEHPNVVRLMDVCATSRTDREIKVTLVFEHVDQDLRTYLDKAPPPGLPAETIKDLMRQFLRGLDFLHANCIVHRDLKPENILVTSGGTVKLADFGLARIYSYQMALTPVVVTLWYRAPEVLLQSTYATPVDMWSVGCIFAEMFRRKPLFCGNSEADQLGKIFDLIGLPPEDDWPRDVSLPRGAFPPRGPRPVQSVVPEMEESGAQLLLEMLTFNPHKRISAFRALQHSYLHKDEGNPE
T2 sequence (P24385 whole entry partner): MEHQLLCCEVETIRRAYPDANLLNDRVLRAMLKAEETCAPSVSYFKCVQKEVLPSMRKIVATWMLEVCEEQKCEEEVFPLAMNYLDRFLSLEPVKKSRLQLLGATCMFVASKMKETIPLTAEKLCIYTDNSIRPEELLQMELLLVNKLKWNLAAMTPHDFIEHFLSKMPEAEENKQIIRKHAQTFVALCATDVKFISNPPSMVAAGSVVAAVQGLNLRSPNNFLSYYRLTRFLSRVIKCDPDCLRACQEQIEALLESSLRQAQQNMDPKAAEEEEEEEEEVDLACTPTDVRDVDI
T1 sequence (Q00534 whole entry): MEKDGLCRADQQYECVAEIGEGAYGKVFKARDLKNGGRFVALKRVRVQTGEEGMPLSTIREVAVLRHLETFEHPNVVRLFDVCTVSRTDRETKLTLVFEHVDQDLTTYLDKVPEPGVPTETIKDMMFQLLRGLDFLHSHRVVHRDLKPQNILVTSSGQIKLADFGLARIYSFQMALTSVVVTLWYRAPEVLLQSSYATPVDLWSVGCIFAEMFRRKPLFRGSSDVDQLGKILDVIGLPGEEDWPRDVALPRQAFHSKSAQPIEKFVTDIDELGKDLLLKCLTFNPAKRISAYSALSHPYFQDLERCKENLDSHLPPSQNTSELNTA
T1 sequence (P24385 whole entry partner): as the sequence (P24385 whole entry partner) above
T3 sequence (P06493 whole entry): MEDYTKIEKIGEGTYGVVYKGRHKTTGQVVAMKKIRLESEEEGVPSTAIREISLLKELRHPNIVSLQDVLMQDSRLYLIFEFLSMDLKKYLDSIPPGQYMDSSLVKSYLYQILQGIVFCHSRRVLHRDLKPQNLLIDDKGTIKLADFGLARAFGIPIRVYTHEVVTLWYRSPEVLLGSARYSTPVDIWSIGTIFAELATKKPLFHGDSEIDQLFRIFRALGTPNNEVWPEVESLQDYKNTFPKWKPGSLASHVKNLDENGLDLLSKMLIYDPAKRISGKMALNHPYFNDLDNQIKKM
T3 sequence (P14635 whole entry partner): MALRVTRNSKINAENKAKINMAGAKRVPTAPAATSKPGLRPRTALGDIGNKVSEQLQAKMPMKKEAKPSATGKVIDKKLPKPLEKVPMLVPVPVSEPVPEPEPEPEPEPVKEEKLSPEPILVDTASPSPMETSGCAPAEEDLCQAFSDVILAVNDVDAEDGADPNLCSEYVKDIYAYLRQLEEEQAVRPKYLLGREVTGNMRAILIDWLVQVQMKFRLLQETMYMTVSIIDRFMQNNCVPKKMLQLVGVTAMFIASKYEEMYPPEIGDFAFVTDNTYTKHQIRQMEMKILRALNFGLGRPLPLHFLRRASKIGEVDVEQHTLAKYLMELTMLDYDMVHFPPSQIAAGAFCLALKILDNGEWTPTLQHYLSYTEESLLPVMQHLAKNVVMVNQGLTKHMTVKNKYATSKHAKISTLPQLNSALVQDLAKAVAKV

On to `CC(C)N1CCOc2c(F)cc(-c3nc(Nc4ccc5[nH]nc(C6CCNCC6)c5c4)ncc3F)cc21` [Compound 59, N-(5-fluoro-4-(8-fluoro-4-isopropyl-3,4-dihydro-2H-benzo[b][1,4]oxazin-6-yl)pyrimidin-2-yl)-3-(piperidin-4-yl)-1H-indazol-5-amine], for which the IC50 (commonly the concentration needed to halve the response being measured) in assay [1] was determined as 24 nM; in assay [2], 15 nM; in assay [3] it was 1490 nM; in assay [4] it was 3440 nM; in assay [5] it was 7 nM; in assay [6] it was 15 nM.

Take `CC(C)N1CCOc2c(F)cc(-c3nc(Nc4nc5cc(C6=CCNCC6)ccc5s4)ncc3F)cc21` [Compound 120, N-(5-fluoro-4-(8-fluoro-4-isopropyl-3,4-dihydro-2H-benzo[b][1,4]oxazin-6-yl)pyrimidin-2-yl)-5-(1,2,3,6-tetrahydropyridin-4-yl)benzo[d]thiazol-2-amine]: the IC50 in assay [1] is greater than 200 nM; in assay [2], greater than 190 nM; in assay [3], 130 nM; in assay [4] it was 80 nM.
